Data on 30 compounds can be found in US12110289B2, “Heterocyclic compounds, preparation methods and uses thereof” (InventisBio Co., Ltd., priority 2020, dated 2024).

Read-outs that look alike come from different tables or passages of the source. Where only a bound is given, the exact number is not on record here.

For data set [1], the system named is Lung cancer cell line NCI-H358 containing KRas G12C mutation. As to the kind of experiment: Assay for cell proliferation (Cell-titer Glo, 5 days). Type of data set: cell-based, human. The following applies: NCI-H358, 5 days, Cell-titer Glo, read-out: IC50 (nM), Inhibition of NCI-H358 Cell Proliferation. Put shortly: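 NCI-H358 (KRas G12C) cells, 2000 per well, attached overnight at 37 °C, 5% CO2, then treated with compound for 5 days at 0.5% DMSO final. Proliferation measured by CellTiter-Glo luminescence after 10 min at RT.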

In the next data set the test system is pooled human hepatocytes. The experiment in a line: Human hepatocyte clearance study. Type of data set: in vitro ADME. The following applies: working cell density 0.5 × 10^6 viable cells/mL. How it is done:
(§1) The in vitro human hepatocyte clearance of compounds described here was studied using pooled human hepatocytes purchased from BioreclamationIVT (Westbury, NY, Cat #X008001, Lot #TQJ). The assay was conducted according to manufacturer's instruction. Briefly, 10 mM stock solutions of test compounds and positive control (Verapamil) were prepared in 100% DMSO. Thawing media (50 mL) used in the study consists of 31 mL Williams E medium (GIBCO Cat #12551-032), 15 mL isotonic percoll (GE Healthcare Cat #17-0891-09), 500 uL 100× GlutaMax (GIBCO Cat #35050), 750 uL HEPES (GIBCO Cat #15630-080), 2.5 mL FBS (Corning Cat #35-076-CVR), 50 uL human insulin (GIBCO Cat #12585-014) and 5 uL dexamethasone (NICPBP). Incubation media is made of Williams E medium supplemented with 1× GlutaMax. Both thawing medium and incubation medium (serum-free) were placed in a 37° C. water bath for at least 15 minutes prior to use. Compound stock solutions were diluted to 100 μM by combining 198 μL of 50% acetonitrile/50% water and 2 μL of 10 mM stock solution. Verapamil was use as positive control in the assay. Vials of cryopreserved hepatocytes were removed from storage and thawed in a 37° C. water bath with gentle shaking. Contents of the vial were poured into the 50 mL thawing medium conical tube. Vials were centrifuged at 100 g for 10 minutes at room temperature. […] […] […] The boiled hepatocytes were used to prepare negative samples. Aliquots of 198 μL hepatocytes were dispensed into each well of a 96-well non-coated plate. The plate was placed in the incubator on an orbital shaker at 500 rpm for approximately 10 minutes. Aliquots of 2 μL of the 100 μM test compound or positive control were added into respective wells of the non-coated 96-well plate to start the reaction. This assay was performed in duplicate. The plate was incubated in the incubator on an orbital shaker at 500 rpm for the designated time points. Twenty-five microliter of contents were transferred and mixed with 6 volumes (150 μL) of cold acetonitrile with IS (200 nM imipramine, 200 nM labetalol and 200 nM diclofenac) to terminate the reaction at time points of 0, 15, 30, 60, 90 and 120 minutes. Samples were centrifuged at 3,220 g for 25 minutes and aliquots of 150 μL of the supernatants were used for LC-MS/MS analysis. For data analysis, all calculations were carried out using Microsoft Excel. Peak areas were determined from extracted ion chromatograms. The in vitro half-life (t1/2) of parent compound was determined by regression analysis of the percent parent disappearance vs. time curve. […] Scaling factors for in vivo intrinsic clearance prediction using human hepatocytes are listed as: liver weight (g liver/kg body weight): 25.7; hepatocyte concentration (10^6 cells/g liver): 99; scaling factor: 2544.3.

Data set [2] in a line: Human hepatocyte clearance study. It is filed as in vitro ADME. The following applies: human, pooled cryopreserved human hepatocytes (suspension), working cell density 0.5 × 10^6 viable cells/mL; for hepatocyte CLint at 1 µM: read-out: Human In vitro Clint (μl/min/10^6 cells); for half-life at 1 µM: read-out: Human In vitro T1/2; for CLint scaled at 1 µM: scaling factor 2544.3, read-out: Human Scale-up Clint. How it is done: as §1

`C=CC(=O)N1CCN(c2nc(=O)n(-c3c(C4CC4)ncnc3C3CC3)c3nc(-c4ccccc4F)c(Cl)cc23)[C@@H](C)C1` [Compound 1]: the IC50 in data set [1] (Homo sapiens, NCI-H358, 120 h) turned out to be 10 nM. In addition, the “Human Hepatocyte Remaining Percentage @ 120 min (%)” value in the data set with pooled human hepatocytes is listed as 27.9%. In addition, in data set [2], the hepatocyte CLint at 1 µM was 20.8 µL/min/1e6 cells, the half-life at 1 µM was 66.5 min and the CLint scaled at 1 µM amounted to 53 mL/min/kg. In the same order, the values of `C=CC(=O)N1CCN(c2nc(=O)n(-c3c(C(C)C)nc(N)nc3C(C)C)c3nc(-c4ccccc4F)c(Cl)cc23)[C@@H](C)C1` [Compound 6] are 4.9 nM, 33.4%, 19.3 µL/min/1e6 cells, 71.7 min and 49.2 mL/min/kg. As to `C=CC(=O)N1CCN(c2nc(=O)n(-c3c(C(C)C)nc(OC)nc3C(C)C)c3nc(-c4ccccc4F)c(Cl)cc23)[C@@H](C)C1` [Compound 8], the IC50 in data set [1] (Homo sapiens, NCI-H358, 120 h) amounted to 11.2 nM. In addition, in the data set with pooled human hepatocytes, the “Human Hepatocyte Remaining Percentage @ 120 min (%)” value is 2.1%. Besides, in data set [2], the hepatocyte CLint at 1 µM is 63.8 µL/min/1e6 cells, the half-life at 1 µM is 21.7 min and the CLint scaled at 1 µM was determined as 162 mL/min/kg.

Take `C=CC(=O)N1CCN(c2nc(=O)n(-c3c(C(C)C)nc(C)nc3C(C)C)c3nc(-c4ccccc4F)c(Cl)cc23)[C@@H](C)C1` [Compound 9]: the IC50 in data set [1] (Homo sapiens, NCI-H358, 120 h) was 4.1 nM. Besides, in the data set on pooled human hepatocytes, the “Human Hepatocyte Remaining Percentage @ 120 min (%)” value came out at 18.6%. Also, in data set [2], the hepatocyte CLint at 1 µM was found to be 27.6 µL/min/1e6 cells, the half-life at 1 µM was 50.2 min and the CLint scaled at 1 µM is 70.2 mL/min/kg. In the case of `C=CC(=O)N1CCN(c2nc(=O)n(-c3c(C(C)C)nc(OCCN(C)C)nc3C(C)C)c3nc(-c4ccccc4F)c(Cl)cc23)[C@@H](C)C1` [Compound 13], the IC50 in data set [1] (Homo sapiens, NCI-H358, 120 h) worked out at 6.5 nM. In the data set on pooled human hepatocytes, the “Human Hepatocyte Remaining Percentage @ 120 min (%)” value is listed as 103% and the “Human In vitro T1/2 (min)” value is “∞^b”. In the case of `C=CC(=O)N1CCN(c2nc(=O)n(-c3c(C(C)C)nc(N4CCNCC4)nc3C(C)C)c3nc(-c4ccccc4F)c(Cl)cc23)[C@@H](C)C1` [Compound 14], the IC50 in data set [1] (Homo sapiens, NCI-H358, 120 h) was 8.8 nM. In the data set on pooled human hepatocytes, the “Human Hepatocyte Remaining Percentage @ 120 min (%)” value was 75.7%. Besides, in data set [2], the hepatocyte CLint at 1 µM worked out at 4.5 µL/min/1e6 cells, the half-life at 1 µM is 306 min and the CLint scaled at 1 µM turned out to be 11.5 mL/min/kg.

For the compound `C=CC(=O)N1CCN(c2nc(=O)n(-c3c(C4CC4)nc(OCCN(C)C)nc3C3CC3)c3nc(-c4ccccc4F)c(Cl)cc23)[C@@H](C)C1` [Compound 20], the IC50 in data set [1] (Homo sapiens, NCI-H358, 120 h) was found to be 6.7 nM. Further, the “Human Hepatocyte Remaining Percentage @ 120 min (%)” value in the data set with pooled human hepatocytes turned out to be 74.3%. Further, in data set [2], the hepatocyte CLint at 1 µM amounted to 5.1 µL/min/1e6 cells, the half-life at 1 µM was determined as 274 min and the CLint scaled at 1 µM is 12.9 mL/min/kg. Regarding `C=CC(=O)N1CCN(c2nc(=O)n(-c3c(C(C)C)nc(N)nc3C(C)C)c3nc(-c4c(O)cccc4F)c(F)cc23)[C@@H](C)C1` [Compound 108], the IC50 in data set [1] (Homo sapiens, NCI-H358, 120 h) was 46.5 nM. `C=CC(=O)N1C[C@H](C)N(c2nc(=O)n(-c3c(C(C)C)nc(N)nc3C(C)C)c3nc(-c4c(O)cccc4F)c(F)cc23)C[C@H]1C` [Compound 109]: the IC50 in data set [1] (Homo sapiens, NCI-H358, 120 h) was found to be 12.3 nM.

On to `C=CC(=O)N1CCN(c2nc(=O)n(-c3c(C4CC4)nc(N)nc3C3CC3)c3nc(-c4c(O)cccc4F)c(Cl)cc23)[C@@H](C)C1` [Compound 110], for which, in data set [1] (Homo sapiens, NCI-H358, 120 h), the IC50 turned out to be 10.1 nM. Still for that read-out and setting: the result for `C=CC(=O)N1C[C@H](C)N(c2nc(=O)n(-c3c(C4CC4)nc(N)nc3C3CC3)c3nc(-c4c(O)cccc4F)c(Cl)cc23)C[C@H]1C` [Compound 111] reads 6.3 nM. Still for that read-out and setting: under `C=CC(=O)N1CCN(c2nc(=O)n(-c3c(C4CC4)nc(N)nc3C3CC3)c3nc(-c4c(O)cccc4F)c(F)cc23)[C@@H](C)C1` [Compound 112] stands 32.1 nM; under `C=CC(=O)N1C[C@H](C)N(c2nc(=O)n(-c3c(C4CC4)nc(N)nc3C3CC3)c3nc(-c4c(O)cccc4F)c(F)cc23)C[C@H]1C` [Compound 113], 48.5 nM; under `C=CC(=O)N1C[C@H](C)N(c2nc(=O)n(-c3c(C4CC4)nc(C)nc3C3CC3)c3nc(-c4cccc5[nH]nc(N)c45)c(F)cc23)C[C@H]1C` [Compound 114], 497 nM. Still for that read-out and setting: the result for `C=CC(=O)N1C[C@H](C)N(c2nc(=O)n(-c3c(C4CC4)nc(N4CCNCC4)nc3C3CC3)c3nc(-c4c(N)cccc4F)c(Cl)cc23)C[C@H]1C` [Compound 115] reads 4.6 nM; that for `C=CC(=O)N1CCN(c2nc(=O)n(-c3c(C4CC4)nc(N4CCNCC4)nc3C3CC3)c3nc(-c4ccccc4F)c(Cl)cc23)[C@@H](C)C1` [Compound 116], 15.8 nM; that for `C=CC(=O)N1CCN(c2nc(=O)n(-c3c(C(C)C)nc4ocnc4c3C)c3nc(-c4ccccc4F)c(Cl)cc23)[C@@H](C)C1` [Compound 117], 12.9 nM. As for `C=CC(=O)N1CCN(c2nc(=O)n(-c3c(C(C)C)nc(C(F)(F)F)nc3C(C)C)c3nc(-c4c(N)cccc4F)c(F)cc23)[C@@H](C)C1` [Compound 118], the IC50 in data set [1] (Homo sapiens, NCI-H358, 120 h) came to 40.2 nM. On the same count and under the same terms, under `C=CC(=O)N1CCN(c2nc(=O)n(-c3c(C4CC4)nc(OC(F)F)nc3C3CC3)c3nc(-c4c(N)cccc4F)c(F)cc23)[C@@H](C)C1` [Compound 119] stands 9.6 nM; under `C[C@H]1CN(C(=O)/C=C/CN2CC(F)C2)CCN1c1nc(=O)n(-c2c(C3CC3)ncnc2C2CC2)c2nc(-c3c(N)cccc3F)c(Cl)cc12` [Compound 120], 146 nM.

Take `C=CC(=O)N1C[C@H](C)N(c2nc(=O)n(-c3c(C(C)C)nc(C(=O)O)nc3C(C)C)c3nc(-c4ccccc4F)c(F)cc23)C[C@H]1C` [Compound 121]: the IC50 in data set [1] (Homo sapiens, NCI-H358, 120 h) was more than 3000 nM. On the same count and under the same terms, under `C=CC(=O)N1C[C@H](C)N(c2nc(=O)n(-c3c(C(C)C)nc(C(=O)O)nc3C(C)C)c3nc(-c4c(O)cccc4F)c(F)cc23)C[C@H]1C` [Compound 122] stands more than 3000 nM; under `C=CC(=O)N1C[C@H](C)N(c2nc(=O)n(-c3c(C(C)C)nc(C(=O)O)nc3C(C)C)c3nc(-c4c(N)cccc4F)c(F)cc23)C[C@H]1C` [Compound 123], more than 3000 nM; under `C=C(F)C(=O)N1CCN(c2nc(=O)n(-c3c(C4CC4)ncnc3C3CC3)c3nc(-c4c(N)cccc4F)c(Cl)cc23)[C@@H](C)C1` [Compound 131], 210 nM. Same read-out and setting: the result for `C=C(F)C(=O)N1C[C@H](C)N(c2nc(=O)n(-c3c(C4CC4)ncnc3C3CC3)c3nc(-c4c(N)cccc4F)c(Cl)cc23)C[C@H]1C` [Compound 132] reads 157 nM; that for `COC/C=C/C(=O)N1C[C@H](C)N(c2nc(=O)n(-c3c(C4CC4)ncnc3C3CC3)c3nc(-c4c(N)cccc4F)c(Cl)cc23)C[C@H]1C` [Compound 140], 58.7 nM. As for `C=CC(=O)N1CCN(c2nc(=O)n(-c3c(C)cc4c(ncn4C)c3C(C)C)c3nc(-c4c(N)cccc4F)c(Cl)cc23)[C@@H](C)C1` [Compound 152], the IC50 in data set [1] amounted to 0.4 nM.

Regarding `C=CC(=O)N1CCN(c2nc(=O)n(-c3c(C)nc4c(ncn4C)c3C(C)C)c3nc(-c4c(N)cccc4F)c(F)cc23)[C@@H](C)C1` [Compound 157], in data set [1], the IC50 was found to be 152 nM.

For `C=CC(=O)N1C[C@H](C)N(c2nc(=O)n(-c3c(F)cc4c(ncn4C)c3C(C)C)c3nc(-c4c(O)cccc4F)c(Cl)cc23)C[C@H]1C` [Compound 166], the IC50 in data set [1] (Homo sapiens, NCI-H358, 120 h) stood at 1.5 nM. With `C=CC(=O)N1C[C@H](C)N(c2nc(=O)n(-c3c(C(C)C)nc4c(ncn4C)c3C)c3nc(-c4ccccc4F)c(Cl)cc23)C[C@H]1C` [Compound 181], the IC50 in data set [1] is 44.4 nM.
